Data from PMC10891682, “In Vitro Metabolism and In Vivo Pharmacokinetics Profiles of Hydroxy-α-Sanshool” (Toxics, 2024).
Where “and” joins values, the source holds several entries; their conditions need not be identical. Equal values may be shown once.

Assay: Plasma protein binding (equilibrium dialysis)
Format: in vitro ADME
Settings: human plasma
Procedure: PPB assays were carried out using the HTD 96-well equilibrium DIALYZERTM (Htdialysis, Gales Ferry, CT, USA). […] Then, the (solution A) was titrated with the (solution B) to pH 7.4 to prepare the dialysis buffer (solution C). The quench solution (solution D) consisted of Alprazolam (100 nM) and Ketoprofen (2 μM) in acetonitrile.
Total 3 μL of testing plasm samples (dissolved in DMSO, 200 μM) was mixed with 597 μL of plasma (the final concentration was 1 μM). The dialysis membranes were pre-soaked with water (60 min), then with 20% ethanol (20 min), and with dialysis buffer (20 min). Both the plasm samples and the dialysis buffer are 100 μL. Then, the dialysis plate was sealed and incubated at 37 °C with 5% CO2 at 100 rpm for 6 h. After 6 hours’ incubation, 50 μL of samples of the dialysis buffer and plasma samples were collected and re-added to a 96-well plate. Then, 50 μL of blank plasma was added to buffer samples, and 50 μL PBS was added to plasma samples. Subsequently, 300 μL quench solution was added to precipitate protein.
Peak Area Ratio buffer chamber means the conc for free fraction;
Peak Area Ratio plasma chamber means the conc for both free and bound fraction;
Peak Area Ratio total sample means the conc for starting sample before incubation.

Bound (%) (1 μM, 6 h dialysis, 37 °C): 98.53% and 98.53 ± 4.76%
Remaining at 6 h (%) (6 h): 110.91 ± 6.04%
recovery at 6 h, 1 μM (pH 7.4, 1 μM, 6 h dialysis, 37 °C): 92.6 ± 7.48%
fraction unbound at 6 h, 1 µM (pH 7.4, 1 μM, 6 h dialysis, 37 °C, read-out: Fu (%), unbound fraction): 0.0147 ± 0.0068
Compound: CC(=O)N1CCN(c2ccc(OCC3COC(Cn4ccnc4)(c4ccc(Cl)cc4Cl)O3)cc2)CC1 (stereo not shown) [Ketoconazole]
